Columns and labels:
[1] = test system: wild-type EGFR overexpressing Ba/F3 cells; assay: Growth inhibition of Ba/F3 cells engineered to overexpress wild-type EGFR (CellTiter-Glo luminescence); type: cell-based; settings: Mus musculus, BaF3, 72 hours, concentrations 10000 to 8 nM, read-out: Ba/F3 EGFR^WT GI50 class
Experimental: (§1) Experimental Example: Growth inhibition of Ba/F3 HER2 A775insYVMA and wild-type Ba/F3 cells
(§2) In this Experimental Example, the compounds obtained in Examples 1 to 92 were evaluated for their ability to inhibit growth of cells harboring either the HER2 A775insYVMA mutation or wild-type EGFR. For this purpose, Ba/F3 cells (ATCC, USA) were genetically engineered to overexpress either HER2 A775_G776insYVMA or wild-type EGFR, and the growth of these engineered Ba/F3 cells were monitored in the presence of the compounds described in the Examples to evaluate their effects on growth inhibition.
(§3) Specifically, culture flasks of the engineered Ba/F3 cells suspended in RPMI 1640 medium supplemented with 10% fetal bovine serum (FBS) and 1% penicillin/streptomycin (Gibco BRL, USA) were placed in a cell incubator and incubated at 37°C and 5% CO2 level to allow them to reach a stable logarithmic growth phase. The cells were then harvested by centrifugation to remove the old media and placed into a 96-well plate by dividing them into 100 µL aliquots per well at a dilution of 1×10^5 cells/mL in fresh media. Each of the compounds prepared in the preceding Examples were dissolved in 99.5% (cell culture grade) dimethylsulfoxide (DMSO) to prepare a stock solution of 10 mM concentration, which were serially diluted in the culture medium to final concentrations of 1000, 200, 40, 8, 1.6 and 0.32 nM for HER2 A775insYVMA Ba/F3 cells and concentrations of 10000, 5000, 1000, 200, 40 and 8 nM for wild-type EGFR overexpressing Ba/F3 cells.
(§4) To each aliquot of cells in the 96-well plate, a 50 µL test solution comprising one of the compounds was added to result in each well a 150 µL volume of cells with a compound in a final concentration ranging from 10 µM to 0.32 nM. The Ba/F3 cells treated with the test solution were incubated for 72 hours at 37°C and 5% CO2 level and underwent a 30-minute acclimation by placing the 96-well plate carrying the cells in ambient temperature. Thereafter, to each well was added 50 µL CellTiter-Glo® Luminescent Cell Assay Reagent (CTG, Promega, USA). After allowing 10 minutes to stabilize the signal, luminescence intensity was measured using a microplate reader. The half-maximal growth inhibition concentration (GI50) was calculated from the luminescence readout of the test compounds with the difference between the initial and final cell densities for the well untreated with a compound set at 100% growth. Nonlinear regression analysis based on log[inhibitor] vs. normalized response mode of the Graph Prism software was used for calculating GI50 for each compound, which are summarized in Table 6. The calculated GI50 values are classified in Table 6 into four categories: A for GI50 values less than 100 nM, B for GI50 values more than 100 nM but less than 1,000 nM, C for GI50 values more than 1,000 nM but less than 5,000 nM, and D for GI50 values of more than 5,000 nM.

Ba/F3 HER2 A775insYVMA = assay: Growth inhibition of Ba/F3 cells engineered to overexpress HER2 A775_G776insYVMA (CellTiter-Glo luminescence); type: cell-based; settings: Mus musculus, BaF3, 72 hours, concentrations 1000 to 0.32 nM, read-out: Ba/F3 HER2^YVMA GI50 class
Experimental: as §1, §2, §3, §4

Row | SMILES | GI50 [1] [nM] | GI50 (Ba/F3 HER2 A775insYVMA) [nM]
1 | C=CC(=O)NCCOc1ccc2ncnc(Nc3ccc(Oc4ccc5c(c4)ncn5C)c(C)c3)c2n1 [Example 7, N-(2-((4-((3-methyl-4-((1-methyl-1H-benzo[d]imidazol-5-yl)oxy)phenyl)amino)pyrido[3,2-d]pyrimidin-6-yl)oxy)ethyl)acrylamide] | > 5000 | 100 to 1000
2 | C=CC(=O)N(C)CCOc1ncc2ncnc(Nc3ccc(Oc4ccc5c(c4)ncn5C)c(C)c3)c2n1 [Example 8, N-methyl-N-(2-((8-((3-methyl-4-((1-methyl-1H-benzo[d]imidazol-5-yl)oxy)phenyl)amino)pyrimido[5,4-d]pyrimidin-2-yl)oxy)ethyl)acrylamide] | 1000 to 5000 | 100 to 1000
3 | C=CC(=O)N(C)CCCOc1ccc2ncnc(Nc3ccc(Oc4ccc5c(c4)ncn5C)c(C)c3)c2n1 [Example 9, N-methyl-N-(3-((4-((3-methyl-4-((1-methyl-1H-benzo[d]imidazol-5-yl)oxy)phenyl)amino)pyrido[3,2-d]pyrimidin-6-yl)oxy)propyl)acrylamide] | > 5000 | 100 to 1000
4 | C=CC(=O)NCCOc1ccc2ncnc(Nc3ccc(Oc4ccc5c(c4)ncn5C)c(C)c3)c2c1 [Example 10, N-(2-((4-((3-methyl-4-((1-methyl-1H-benzo[d]imidazol-5-yl)oxy)phenyl)amino)quinazolin-6-yl)oxy)ethyl)acrylamide] | 1000 to 5000 | < 100
5 | C=CC(=O)N(C)CCNc1ccc2ncnc(Nc3ccc(Oc4ccc5c(c4)ncn5C)c(C)c3)c2n1 [Example 15, N-methyl-N-(2-((4-((3-methyl-4-((1-methyl-1H-benzo[d]imidazol-5-yl)oxy)phenyl)amino)pyrido[3,2-d]pyrimidin-6-yl)amino)ethyl)acrylamide] | 1000 to 5000 | < 100
6 | C=CC(=O)N(C)CCCNc1ccc2ncnc(Nc3ccc(Oc4ccc5c(c4)ncn5C)c(C)c3)c2n1 [Example 17, N-methyl-N-(3-((4-((3-methyl-4-((1-methyl-1H-benzo[d]imidazol-5-yl)oxy)phenyl)amino)pyrido[3,2-d]pyrimidin-6-yl)amino)propyl)acrylamide] | > 5000 | < 100
7 | C=CC(=O)N(C)CCN(C)c1ccc2ncnc(Nc3ccc(Oc4ccc5c(c4)ncn5C)c(C)c3)c2n1 [Example 18, N-methyl-N-(2-(methyl(4-((3-methyl-4-((1-methyl-1H-benzo[d]imidazol-5-yl)oxy)phenyl)amino)pyrido[3,2-d]pyrimidin-6-yl)amino)ethyl)acrylamide] | > 5000 | 100 to 1000
8 | C=CC(=O)N(C)CCN(C)c1ncc2ncnc(Nc3ccc(Oc4ccc5c(c4)ncn5C)c(C)c3)c2n1 [Example 19, N-methyl-N-(2-(methyl(8-((3-methyl-4-((1-methyl-1H-benzo[d]imidazol-5-yl)oxy)phenyl)amino)pyrimido[5,4-d]pyrimidin-2-yl)amino)ethyl)acrylamide] | > 5000 | 100 to 1000
9 | C=CC(=O)N(C)CCCN(C)c1ccc2ncnc(Nc3ccc(Oc4ccc5c(c4)ncn5C)c(C)c3)c2n1 [Example 20, N-methyl-N-(3-(methyl(4-((3-methyl-4-((1-methyl-1H-benzo[d]imidazol-5-yl)oxy)phenyl)amino)pyrido[3,2-d]pyrimidin-6-yl)amino)propyl)acrylamide] | > 5000 | 100 to 1000
10 | C=CC(=O)N(C)CC(=O)Nc1ccc2ncnc(Nc3ccc(Oc4ccc5c(c4)ncn5C)c(C)c3)c2n1 [Example 21, N-methyl-N-(2-((4-((3-methyl-4-((1-methyl-1H-benzo[d]imidazol-5-yl)oxy)phenyl)amino)pyrido[3,2-d]pyrimidin-6-yl)amino)-2-oxoethyl)acrylamide] | 1000 to 5000 | 100 to 1000
11 | C=CC(=O)N(C)C/C=C/c1ccc2ncnc(Nc3ccc(Oc4ccc5c(c4)ncn5C)c(C)c3)c2c1 [Example 22] | 1000 to 5000 | < 100
12 | C=CC(=O)N(C)C/C=C/c1ccc2ncnc(Nc3ccc(Oc4ccc5c(c4)ncn5C)c(C)c3)c2n1 [Example 23, (E)-N-methyl-N-(3-(4-((3-methyl-4-((1-methyl-1H-benzo[d]imidazol-5-yl)oxy)phenyl)amino)pyrido[3,2-d]pyrimidin-6-yl)aryl)acrylamide] | > 5000 | < 100

Results, then the molecule that gave them:

Row | GI50 [1] [nM] | GI50 (Ba/F3 HER2 A775insYVMA) [nM] | SMILES
13 | 100 to 1000 | < 100 | C=CC(=O)N(C)CCOc1ccc2ncnc(Nc3ccc(Oc4ccn5ncnc5c4)c(C)c3)c2c1 [Example 1, N-(2-((4-((4-([1,2,4]triazolo[1,5-a]pyridin-7-yloxy)-3-methylphenyl)amino)quinazolin-6-yl)oxy)ethyl)-N-methylacrylamide]
14 | 100 to 1000 | < 100 | C=CC(=O)N(C)CCOc1cc2c(Nc3ccc(Oc4ccn5ncnc5c4)c(C)c3)ncnc2cc1OC [Example 2, N-(2-((4-((4-([1,2,4]triazolo[1,5-a]pyridin-7-yloxy)-3-methylphenyl)amino)-7-methoxyquinazolin-6-yl)oxy)ethyl)-N-methylacrylamide]
15 | 100 to 1000 | < 100 | C=CC(=O)N(C)CCOc1ccc2ncnc(Nc3ccc(Oc4ccn5ncnc5c4)c(C)c3)c2n1 [Example 3, N-(2-((4-((4-([1,2,4]triazolo[1,5-a]pyridin-7-yloxy)-3-methylphenyl)amino)pyrido[3,2-d]pyrimidin-6-yl)oxy)ethyl)-N-methylacrylamide]
16 | > 5000 | < 100 | C=CC(=O)N(C)CCOc1ccc2ncnc(Nc3ccc(Oc4ccc5c(c4)ncn5C)c(C)c3)c2c1 [Example 5, N-methyl-N-(2-((4-((3-methyl-4-((1-methyl-1H-benzo[d]imidazol-5-yl)oxy)phenyl)amino)quinazolin-6-yl)oxy)ethyl)acrylamide]
17 | > 5000 | < 100 | C=CC(=O)N(C)CCOc1ccc2ncnc(Nc3ccc(Oc4ccc5c(c4)ncn5C)c(C)c3)c2n1 [Example 6, N-methyl-N-(2-((4-((3-methyl-4-((1-methyl-1H-benzo[d]imidazol-5-yl)oxy)phenyl)amino)pyrido[3,2-d]pyrimidin-6-yl)oxy)ethyl)acrylamide]
18 | 1000 to 5000 | 1000 to 5000 | C=CC(=O)N(C)CCNc1ncc2ncnc(Nc3ccc(Oc4ccn5ncnc5c4)c(C)c3)c2n1 [Example 12, N-(2-((8-((4-([1,2,4]triazolo[1,5-a]pyridin-7-yloxy)-3-methylphenyl)amino)pyrimido[5,4-d]pyrimidin-2-yl)amino)ethyl)-N-methylacrylamide]
19 | 1000 to 5000 | 100 to 1000 | C=CC(=O)N(C)CCN(C)c1ccc2ncnc(Nc3ccc(Oc4ccn5ncnc5c4)c(C)c3)c2n1 [Example 13, N-(2-((4-((4-([1,2,4]triazolo[1,5-a]pyridin-7-yloxy)-3-methylphenyl)amino)pyrido[3,2-d]pyrimidin-6-yl)(methyl)amino)ethyl)-N-methylacrylamide]
20 | 1000 to 5000 | 1000 to 5000 | C=CC(=O)N(C)CCN(C)c1ncc2ncnc(Nc3ccc(Oc4ccn5ncnc5c4)c(C)c3)c2n1 [Example 14, N-(2-((8-((4-([1,2,4]triazolo[1,5-a]pyridin-7-yloxy)-3-methylphenyl)amino)pyrimido[5,4-d]pyrimidin-2-yl)(methyl)amino)ethyl)-N-methylacrylamide]
